In patent US9750724B2, “Use of an aromatase inhibitor for the treatment of hypogonadism and related diseases” (Mereo BioPharma 2 Limited, priority 2011, dated 2017):

How the values were obtained:
[1] = Human ADME study, single oral dose of 1 mg 14C-CGP47645 in healthy postmenopausal women; assay type: in vivo
Description: The study was a single dose, single group, open label ADME study of 8 healthy postmenopausal women. […] The study design consisted of a 28-day screening period, one baseline visit (Day −1), a domiciled period beginning from admission on Day −1 through discharge on Day 7, 2 outpatient visits for PK blood collection on Days 14 (±1) and 21 (±1), 2 subject specific adipose tissue collection visits, and an end-of-study 6 month safety follow-up visit.
The primary goal of this study was to assess the partitioning of CGP47645 into abdominal adipose tissue as a measure of peripheral tissue targeting and to assess whether there may be a longer T½ metabolite, as well as to elucidate the metabolic profile, obtain information on routes of excretion and mass balance. Adipose tissue samples were collected in a sparse sampling protocol, where each subject underwent two collections of adipose tissue, with each subject biopsied at different times.

[2] = Single ascending dose study in pre- and post-menopausal women, pharmacokinetics; assay type: in vivo, human; conditions: for AUC(0-t): AUC (0-tlast) Mean; for Cmax: Cmax Mean
Description: The drug concentration in plasma and/or serum samples can be determined by a number of different ways, e.g. HPLC or LC-MS/MS analyses. […]
(§1) A minimal toxic dose (MTD) was not reached. […] Table 3 presents the PK parameters based on preliminary analysis of the concentration-time profile obtained from this study.

[3] = Pharmacokinetics after oral administration to rats; assay type: in vivo, rat
Description: In one embodiment, the compound may even show an apparent elimination half-life of at least about 30 days or even at least 35 days. […] The results observed were completely unexpected in view of the previous rat experiments showing a half-life of about a week [Batzl-Hartmann et al, 1994 and Bhatnagar et al, 1996]. This surprising extremely long half-life of the compound in humans gives rise to the particular dosing scheduled of the invention.

[4] = Toxicologic studies in female and male dogs, weekly oral dosing; assay type: in vivo, dog
Description: Generally, the inter-animal variability in Cmax levels was small.

[5] = Physicochemical properties of the crystalline compound; conditions: crystalline powder
[6] = Single ascending dose study in women, safety and bone density (DEXA); assay type: in vivo; conditions: single doses 0.01 mg through 20 mg, post-menopausal women
Description: Patients received either 0.1 mg, 1 mg, and 10 mg drug substance containing hard gelatin capsules or appropriate matching placebo capsules.
as §1

[7] = female, human, in vivo, 0.01 mg
[8] = female, human, in vivo, 0.03 mg

N#Cc1ccc(C(F)(c2ccc(C#N)cc2)n2cncn2)cc1 [CGP47645, 4,4′-[fluoro-(1-H-1,2,4-triazol-1-yl)methylene]bisbenzonitrile]
metabolites in plasma ([1]; LSC and LC-MS): No metabolites were detected in plasma | Kp ([1]; female, human, abdominal adipose tissue, oral, 1 mg, postmenopausal women, read-out: accumulation in fat tissue in comparison to exposure in plasma): 1 to 3 | half-life ([1]; female, human, single oral 1 mg, plasma, parent drug, read-out: terminal elimination half-life (converted)): ~672 h | safety and tolerability ([1]; single oral 1 mg 14C-CGP47645): safe and well tolerated | share of renally eliminated radioactivity recovered as unchanged drug ([1]; single oral 1 mg 14C-CGP47645): 16% | share of total radioactivity excreted after 6 days that was renally eliminated ([1]; single oral 1 mg 14C-CGP47645): Approximately 84% | absorption ([1]; single oral 1 mg, healthy postmenopausal women): fast and almost complete absorption | duration of persistent plasma concentrations post-dose ([1]; single oral 1 mg, terminal phase): > 4000 h | main metabolites identified in urine ([1]; three main metabolites): a carbinol derivative and two glucuronides | Tmax [2, 7]: 1 h | AUC(0-t) [2, 7]: 1.4 ng·h/mL | Cmax [2, 7]: 0.2 ng/mL | half-life ([2]; female, human, in vivo, 0.01 mg, T1/2 Mean): 55.2 h | AUC(0-t) [2, 8]: 24.1 ng·h/mL | Cmax [2, 8]: 0.4 ng/mL | half-life ([2]; female, human, in vivo, 0.03 mg, T1/2 Mean): 396 h | T1/2 Mean ([2]; female, human, in vivo, 0.1 mg): 564 h | Tmax ([2]; female, human, in vivo, 0.1 mg): 1 h | Tmax Median ([2]; female, human, in vivo, 0.1 mg): 1 h | AUC(0-t) ([2]; female, human, in vivo, 0.1 mg): 123 ng·h/mL | Cmax ([2]; female, human, in vivo, 0.1 mg): 1.8 ng/mL | half-life ([2]; female, human, in vivo, 0.1 mg, T1/2 Mean): 437 h | Tmax ([2]; female, human, in vivo, 0.3 mg): 1 h | AUC(0-t) ([2]; female, human, in vivo, 0.3 mg): 605 ng·h/mL | Cmax ([2]; female, human, in vivo, 0.3 mg): 5.1 ng/mL | half-life ([2]; female, human, in vivo, 0.3 mg, T1/2 Mean): 564 h | Tmax ([2]; female, human, in vivo, 1 mg): 1 h | AUC(0-t) ([2]; female, human, in vivo, 1 mg): 3200 ng·h/mL | Cmax ([2]; female, human, in vivo, 1 mg): 12.8 ng/mL | half-life ([2]; female, human, in vivo, 1 mg, T1/2 Mean): 538 h | Tmax ([2]; female, human, in vivo, 3 mg): 1 h | AUC(0-t) ([2]; female, human, in vivo, 3 mg): 10100 ng·h/mL | Cmax ([2]; female, human, in vivo, 3 mg): 38.4 ng/mL | half-life ([2]; female, human, in vivo, 3 mg, T1/2 Mean): 600 h | Tmax ([2]; female, human, in vivo, 10 mg): 2 h | AUC(0-t) ([2]; female, human, in vivo, 10 mg): 41700 ng·h/mL | Cmax ([2]; female, human, in vivo, 10 mg): 124 ng/mL | half-life ([2]; female, human, in vivo, 10 mg, T1/2 Mean): 655 h | Tmax ([2]; female, human, in vivo, 20 mg): 2 h | AUC(0-t) ([2]; female, human, in vivo, 20 mg): 76700 ng·h/mL | Cmax ([2]; female, human, in vivo, 20 mg): 270 ng/mL | half-life ([2]; female, human, in vivo, 20 mg, T1/2 Mean): 646 h | half-life ([2]; female, human, in vivo, half life): ~600 h | half-life ([2]; female, human, in vivo, half-life in serum): 528 to 696 h | Tmax ([2]; female, human, in vivo, po): 0.5 to 2 h | median Tmax ([2]; female, human, in vivo, po): ≤ 1 h | half-life ([2]; female, human, in vivo, po, half-life): 552 to 648 h | differences in pharmacokinetics between post- and pre-menopausal women ([2]; in vivo): No differences | dose proportionality of pharmacokinetics ([2]; single doses 0.01 to 20 mg, women): dose proportional pharmacokinetics | exposure (AUC) versus dose [3]: proportional to the administered dose | half-life ([3]; rat, in vivo, read-out: T½ (converted)): 75 h | Tmax ([4]; both sexes, dog, plasma, oral, dogs, post dose): 1 to 24 h | difference in exposure (AUC and Cmax) between male and female dogs ([4]; dogs): no consistent difference | drug accumulation ([4]; dogs, weekly oral dosing for 4 or 22 weeks versus single dose): no drug accumulation | increase in exposure (AUC and Cmax) versus dose ([4]; male and female dogs, single and multiple doses): generally proportional to the dose increase | serum testosterone levels ([4]; male dogs after 1, 4 and 12 weeks of dosing): dramatically elevated testosterone levels at all dose levels | hygroscopicity [5]: not hygroscopic | minimal toxic dose (MTD) [6]: not reached
